Experimental data: ChEMBL document CHEMBL1201862, “PubChem BioAssay data set” (2004)
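Cultured in 96-well plates, cells were exposed to test compound for 48 hours across five concentrations. GI50: concentration for 50% inhibition of growth.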 Activity calls are given as the source filed them. Cut-off read from the data, not from the text of the source: active = GI50 up to about 1.1 µM and inactive = higher. Starred links: 1 amine or outer side, 2 acyl side, 3 side chain; linkers in the order of their positions; H or OH if unused. Positions of bridges follow the written chain, without caps; N, C: chain ends. Non-standard residues stand in square brackets, D forms with d. Residues, ends and D or L forms follow the SMILES beside them. Chains are numbered I, II in the order given. ξ: configuration not given here. X42 = N=C(N)NCCC[C@H](NC(=N)CCCCCCC(=N)N[C@@H](CCCNC(=N)N)C(=O)[*:2])C(=O)[*:1]; Oic(3aξ,7aξ) = O=C(O)[C@@H]1CC2CCCCC2N1; Igl = N[C@H](C(=O)O)C1Cc2ccccc2C1; Hyp = O=C(O)[C@@H]1C[C@@H](O)CN1

Experiments:
Assay in all cases: NCI-60 cell line screen, 48 h
MOLT-4 = test system: MOLT-4
RPMI-8226 = test system: RPMI-8226
TK-10 = test system: TK-10
MDA-MB-231 = test system: MDA-MB-231
CAKI-1 = test system: CAKI-1
SK-MEL-28 = test system: SK-MEL-28
Malme-3M = test system: Malme-3M
MCF7 = test system: MCF7
NCI-H460 = test system: NCI-H460
HT-29 = test system: HT-29
SK-OV-3 = test system: SK-OV-3
ACHN = test system: ACHN
IGROV-1 = test system: IGROV-1
A498 = test system: A498

Structure (SMILES) | GI50 (MOLT-4) | GI50 (RPMI-8226) | GI50 (TK-10) | GI50 (MDA-MB-231) | GI50 (CAKI-1) | GI50 (SK-MEL-28) | GI50 (Malme-3M) | GI50 (MCF7) | GI50 (NCI-H460) | GI50 (HT-29) | GI50 (SK-OV-3) | GI50 (ACHN) | GI50 (IGROV-1) | GI50 (A498)
CCCCCCCCC[C@@H]1C[C@@H]2CCC3C(C(=O)OC)=C(C)N=C(N1)N32 (some centres undefined) | 8.22 µM (inactive) | 6 µM (inactive) | 13.2 µM (inactive) | 5.13 µM (inactive) | 17.3 µM (inactive) | 21 µM (inactive) | 10.5 µM (inactive) | 3.72 µM (inactive) | 3.65 µM (inactive) | 4.25 µM (inactive) | 10.6 µM (inactive) | 16.1 µM (inactive) | 4.72 µM (inactive) | –
CCC(=O)NI1OC(=O)c2ccccc21 | > 100 µM (inactive) | 45.9 µM (inactive) | > 100 µM (inactive) | > 100 µM (inactive) | 21.6 µM (inactive) | > 100 µM (inactive) | – | > 100 µM (inactive) | > 100 µM (inactive) | > 100 µM (inactive) | > 100 µM (inactive) | > 100 µM (inactive) | > 100 µM (inactive) | > 100 µM (inactive)
CCOS(C)(=O)=O [METHANESULFONIC ACID ETHYL ESTER] | > 100 µM (inactive) | – | > 100 µM (inactive) | > 100 µM (inactive) | > 100 µM (inactive) | > 100 µM (inactive) | > 100 µM (inactive) | > 100 µM (inactive) | > 100 µM (inactive) | > 100 µM (inactive) | > 100 µM (inactive) | > 100 µM (inactive) | > 100 µM (inactive) | > 100 µM (inactive)
O=[N+]([O-])c1ccc(C2c3c(O)nc(S)nc3Oc3nc(S)nc(O)c32)cc1 | > 100 µM (inactive) | > 100 µM (inactive) | > 100 µM (inactive) | > 100 µM (inactive) | > 100 µM (inactive) | > 100 µM (inactive) | – | > 100 µM (inactive) | > 100 µM (inactive) | > 100 µM (inactive) | – | > 100 µM (inactive) | > 100 µM (inactive) | > 100 µM (inactive)
N=C(N)NCCC[C@H](NC(=O)[C@@H]1CC2CCCCC2N1C(=O)[C@@H](NC(=O)[C@H](CO)NC(=O)[C@@H](NC(=O)CNC(=O)[C@@H]1CCCN1C(=O)[C@H](CCCNC(=N)N)NC(=O)[C@H](CCCNC(=N)N)NC(=N)CCCCCCC(=N)N[C@@H](CCCNC(=N)N)C(=O)N[C@@H](CCCNC(=N)N)C(=O)N1CCC[C@H]1C(=O)N1C[C@H](O)C[C@H]1C(=O)NCC(=O)N[C@H](C(=O)N[C@@H](CO)C(=O)N[C@H](C(=O)N1C2CCCCC2C[C@H]1C(=O)N[C@@H](CCCNC(=N)N)C(=O)O)C1Cc2ccccc2C1)C1Cc2ccccc2C1)C1Cc2ccccc2C1)C1Cc2ccccc2C1)C(=O)O (some centres undefined) (I: RP[Hyp]G[Igl]S[Igl][Oic(3aξ,7aξ)]R-OH / II: RPG[Igl]S[Igl][Oic(3aξ,7aξ)]R-OH; linker I:N-II:N via X42) | 0.413 µM (active) | 2.31 µM (inactive) | 2.76 µM (inactive) | 1.69 µM (inactive) | 2.1 µM (inactive) | 2.01 µM (inactive) | 2.31 µM (inactive) | 1.99 µM (inactive) | 1.91 µM (inactive) | 0.138 µM (active) | 1.83 µM (inactive) | 1.91 µM (inactive) | 2.44 µM (inactive) | –
CC(C)=CC1C(COC(=O)c2cc3c(cc2Cl)OCO3)C1(C)C (centres undefined) | 16.1 µM (inactive) | – | > 100 µM (inactive) | 73.6 µM (inactive) | 22.7 µM (inactive) | 38.8 µM (inactive) | 14.2 µM (inactive) | – | 33 µM (inactive) | 33 µM (inactive) | – | 33.1 µM (inactive) | 45.2 µM (inactive) | 31.5 µM (inactive)
Cc1cc(C)c(C2CC(O)C(CO)O2)cc1C (centres undefined) | > 100 µM (inactive) | > 100 µM (inactive) | > 100 µM (inactive) | > 100 µM (inactive) | > 100 µM (inactive) | > 100 µM (inactive) | > 100 µM (inactive) | – | > 100 µM (inactive) | > 100 µM (inactive) | > 100 µM (inactive) | > 100 µM (inactive) | > 100 µM (inactive) | –
S=C(Nc1ccccc1)c1ccc(CN2CCCCC2)s1 | 16.1 µM (inactive) | 21.7 µM (inactive) | – | – | 20.7 µM (inactive) | 16.2 µM (inactive) | 21 µM (inactive) | 18 µM (inactive) | 21.6 µM (inactive) | 11.3 µM (inactive) | 19.5 µM (inactive) | 45 µM (inactive) | 24 µM (inactive) | 18.4 µM (inactive)
Cc1ccc(/S(Cc2ccccc2)=N\S(=O)(=O)c2ccc(C)cc2)cc1 (centres undefined) | 5.92 µM (inactive) | > 100 µM (inactive) | > 100 µM (inactive) | – | – | > 100 µM (inactive) | > 100 µM (inactive) | > 100 µM (inactive) | > 100 µM (inactive) | > 100 µM (inactive) | – | > 100 µM (inactive) | – | –
O=[N+]([O-])c1ccc2c(c1)C1=C(CO2)Cc2ccccc2O1 | > 10 µM (inactive) | 36.6 µM (inactive) | 26.5 µM (inactive) | 27.4 µM (inactive) | 17.6 µM (inactive) | – | 26.4 µM (inactive) | – | – | 26.2 µM (inactive) | 74.5 µM (inactive) | 15.5 µM (inactive) | 19.2 µM (inactive) | 63.8 µM (inactive)
